Consider 2 molecules from US20160122313A1, “COMPOSITIONS AND METHODS FOR THE TREATMENT OF DIABETES” (priority 2014, published 2016).

One experiment concerns Non-Diabetic Rats. Kind of experiment: Effect on serum glucose, body weight and HbA1c in nondiabetic rats, 4 weeks treatment. In kind it is in vivo, rat. The conditions noted are these: 30 mg/kg/day p.o.; for Glucose: serum glucose. On the procedure: (§1) Effect of Nateglinide alone and Formula I (1-2) on Serum Glucose, Body Weights and HbAlc in Non-Diabetic and Diabetic Rats:
(§2) Methods: Animals were divided in to following groups, each group containing 6 animals and the treatment period for whole study was 4 weeks.
Group 1: Nondiabetic (ND) control, received CMC as vehicle (1 ml/kg/day, p.o, NDCON).
Group 2: Nondiabetic group treated with Nateglinide (NAT) (30 mg/kg/day, p.o, ND-NAT).
Group 3: Nondiabetic group treated with Formula I (1-2) (30 mg/kg/day, p.o)
(§3) Effect of Nateglinide (30 mg/kg/day, p.o) and Formula I (30 mg/kg/day, p.o) on Changes in Body Weight, Serum Glucose and HbAlc Level in Nondiabetic and Diabetic Rats.

The subject of another experiment is Diabetic Rats. Kind of experiment: Effect on serum glucose, body weight and HbA1c in STZ/nicotinamide-induced type 2 diabetic rats, 4 weeks treatment. It counts as in vivo, rat. The conditions noted are these: diabetic rats (STZ 65 mg/kg + NIC 150 mg/kg i.p.), 30 mg/kg/day; for Glucose: serum glucose. On the procedure: as §1
Type 2 Diabetes was induced in overnight fasted rats by a single intraperitoneal injection of 65 mg/kg Streptozotocin (STZ), 15 min after the i.p administration of 150 mg/kg of Nicotinamide (NIC). After 7 days following STZ and NIC administration, blood was collected from tail vein and serum samples were analyzed for blood glucose. Animals showing fasting blood glucose higher than 300 mg/dl were considered as diabetic and were used for the study.
as §2
Group 4: Diabetic control, single injection of STZ (65 mg/kg, i.p) and NIC (150 mg/kg, i.p, DB-CON).
Group 5: Diabetic rats (DB) treated with NAT (30 mg/kg/day, DB-NAT).
Group 6: Diabetic rats treated with Formula I (1-2) (30 mg/kg/day, p.o)
as §3

Take `CC(C)[C@H]1CCC[C@H](C(=O)N[C@H](Cc2ccccc2)OC(=O)OC(=O)CCCC[C@]2(C)CCSS2)C1` [FORMULA I]: in the experiment on Non-Diabetic Rats, the “(%, HbA1c)” value is listed as 4.21 +/− 0.67%; the “Body weight (gm)” value was 265.1 +/− 9.3 gm; the “Glucose” value came to 77.87 ± 9.67 mg/dL. Moreover, in the experiment with Diabetic Rats, the “(%, HbA1c)” value is recorded as 4.01 +/− 0.72% and the “Glucose” value is 99.1 ± 12.1 mg/dL.
With `CC(C)[C@H]1CC[C@H](C(=O)N[C@H](Cc2ccccc2)C(=O)O)CC1` [NAT, Nateglinide], in the experiment with Non-Diabetic Rats, the “(%, HbA1c)” value is 5.04 +/− 0.30%; the “Body weight (gm)” value is reported as 224.0 +/− 7.23 gm; the “Glucose” value worked out at 70.21 ± 5.6 mg/dL. Besides, in the experiment on Diabetic Rats, the “(%, HbA1c)” value was 6.78 +/− 0.98%; the “Body weight (gm)” value is 219.8 +/− 50.28 gm; the “Glucose” value came to 170.7 ± 13.21 mg/dL.
